# Results reported in the supplement of paper PMC10307832.
# Legend:
# Assay in all cases: relative viability (nuclei count vs DMSO), 5 days (fraction); higher = more cells survive
# LOU-NH91 = test system: LOU-NH91
# How it was run: (§1)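 One day after seeding in 1536-well plates, lung cancer cell lines were dosed by pin tool. Dosing was either single-drug or a fixed anchor-drug dose plus five library-drug doses (not always all listed) in √10 steps. After 5 days, nuclei were stained in one fix-and-stain step and counted on 4× images, and relative viability is the nuclei count of treated wells over that of vehicle wells, given as the median of duplicate plates.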
# HCC-44 = test system: HCC-44
# How it was run: as §1
# NCI-H838 = test system: NCI-H838
# How it was run: as §1
# HCC-78 = test system: HCC-78
# How it was run: as §1
# NCI-H727 = test system: NCI-H727
# How it was run: as §1
# NCI-H1755 = test system: NCI-H1755
# How it was run: as §1
# SW 1573 = test system: SW 1573
# How it was run: as §1
# HCC-366 = test system: HCC-366
# How it was run: as §1
# NCI-H1734 = test system: NCI-H1734
# How it was run: as §1
# NCI-H1650 = test system: NCI-H1650
# How it was run: as §1
# NCI-H2009 = test system: NCI-H2009
# How it was run: as §1
# UMC-11 = test system: UMC-11
# How it was run: as §1
# ABC-1 = test system: ABC-1
# How it was run: as §1
# LK-2 = test system: LK-2
# How it was run: as §1
# 201T = test system: 201T
# How it was run: as §1
# NCI-H520 = test system: NCI-H520
# How it was run: as §1
# NCI-H2405 = test system: NCI-H2405
# How it was run: as §1
# NCI-H2228 = test system: NCI-H2228
# How it was run: as §1
# NCI-H1666 = test system: NCI-H1666
# How it was run: as §1
# NCI-H1355 = test system: NCI-H1355
# How it was run: as §1
# BEN = test system: BEN
# How it was run: as §1
# NCI-H2347 = test system: NCI-H2347
# How it was run: as §1
# NCI-H358 = test system: NCI-H358
# How it was run: as §1
compound,measurement,setting,value
O=C(O)CCCCC(CCSCc1ccccc1)SCc1ccccc1 (centres undefined) [CPI-613] + O=C(c1cc(Cc2n[nH]c(=O)c3ccccc23)ccc1F)N1CCN(C(=O)C2CC2)CC1 [Olaparib] (partner 8 µM),relative viability,LOU-NH91; first compound 5 µM,0.883
same,relative viability,LOU-NH91; first compound 15.81 µM,0.86
same,relative viability,LOU-NH91; first compound 50 µM,0.867
same,relative viability,LOU-NH91; first compound 158.11 µM,0.442
same,relative viability,LOU-NH91; first compound 500 µM,0.533
same,relative viability,HCC-44; first compound 5 µM,0.97
same,relative viability,HCC-44; first compound 15.81 µM,0.95
same,relative viability,HCC-44; first compound 50 µM,0.925
same,relative viability,HCC-44; first compound 158.11 µM,0.629
same,relative viability,HCC-44; first compound 500 µM,0.469
same,relative viability,NCI-H838; first compound 5 µM,0.79
same,relative viability,NCI-H838; first compound 15.81 µM,0.705
same,relative viability,NCI-H838; first compound 50 µM,0.721
same,relative viability,NCI-H838; first compound 158.11 µM,0.278
same,relative viability,NCI-H838; first compound 500 µM,0.115
same,relative viability,HCC-78; first compound 15.81 µM,0.792
same,relative viability,HCC-78; first compound 50 µM,0.857
same,relative viability,HCC-78; first compound 158.11 µM,0.842
same,relative viability,HCC-78; first compound 500 µM,0.711
same,relative viability,NCI-H727; first compound 5 µM,0.783
same,relative viability,NCI-H727; first compound 15.81 µM,0.672
same,relative viability,NCI-H727; first compound 50 µM,0.631
same,relative viability,NCI-H727; first compound 158.11 µM,0.748
same,relative viability,NCI-H727; first compound 500 µM,0.678
same,relative viability,NCI-H1755; first compound 5 µM,0.91
same,relative viability,NCI-H1755; first compound 15.81 µM,0.894
same,relative viability,NCI-H1755; first compound 50 µM,0.954
same,relative viability,NCI-H1755; first compound 158.11 µM,0.751
same,relative viability,NCI-H1755; first compound 500 µM,0.805
same,relative viability,SW 1573; first compound 5 µM,0.442
same,relative viability,SW 1573; first compound 15.81 µM,0.395
same,relative viability,SW 1573; first compound 50 µM,0.406
same,relative viability,SW 1573; first compound 158.11 µM,0.135
same,relative viability,SW 1573; first compound 500 µM,0.071
same,relative viability,HCC-366; first compound 5 µM,0.392
same,relative viability,HCC-366; first compound 15.81 µM,0.37
same,relative viability,HCC-366; first compound 50 µM,0.41
same,relative viability,HCC-366; first compound 158.11 µM,0.0554
same,relative viability,HCC-366; first compound 500 µM,0.0079
same,relative viability,NCI-H1734; first compound 5 µM,0.584
same,relative viability,NCI-H1734; first compound 15.81 µM,0.596
same,relative viability,NCI-H1734; first compound 50 µM,0.516
same,relative viability,NCI-H1734; first compound 158.11 µM,0.373
same,relative viability,NCI-H1734; first compound 500 µM,0.173
same,relative viability,NCI-H1650; first compound 5 µM,0.728
same,relative viability,NCI-H1650; first compound 15.81 µM,0.791
same,relative viability,NCI-H1650; first compound 50 µM,0.749
same,relative viability,NCI-H1650; first compound 158.11 µM,0.416
same,relative viability,NCI-H1650; first compound 500 µM,0.0224
same,relative viability,NCI-H2009; first compound 5 µM,0.703
same,relative viability,NCI-H2009; first compound 15.81 µM,0.707
same,relative viability,NCI-H2009; first compound 50 µM,0.67
same,relative viability,NCI-H2009; first compound 158.11 µM,0.109
same,relative viability,NCI-H2009; first compound 500 µM,0.0171
same,relative viability,UMC-11; first compound 5 µM,0.352
same,relative viability,UMC-11; first compound 15.81 µM,0.371
same,relative viability,UMC-11; first compound 50 µM,0.375
same,relative viability,UMC-11; first compound 158.11 µM,0.155
same,relative viability,UMC-11; first compound 500 µM,0.115
same,relative viability,ABC-1; first compound 5 µM,0.816
same,relative viability,ABC-1; first compound 15.81 µM,0.845
same,relative viability,ABC-1; first compound 50 µM,0.957
same,relative viability,ABC-1; first compound 158.11 µM,0.448
same,relative viability,ABC-1; first compound 500 µM,0.383
same,relative viability,LK-2; first compound 5 µM,0.714
same,relative viability,LK-2; first compound 15.81 µM,0.702
same,relative viability,LK-2; first compound 50 µM,0.749
same,relative viability,LK-2; first compound 158.11 µM,0.796
same,relative viability,LK-2; first compound 500 µM,0.736
same,relative viability,201T; first compound 5 µM,0.849
same,relative viability,201T; first compound 15.81 µM,0.788
same,relative viability,201T; first compound 50 µM,0.776
same,relative viability,201T; first compound 158.11 µM,0.594
same,relative viability,201T; first compound 500 µM,0.633
same,relative viability,NCI-H520; first compound 5 µM,0.323
same,relative viability,NCI-H520; first compound 15.81 µM,0.371
same,relative viability,NCI-H520; first compound 50 µM,0.329
same,relative viability,NCI-H520; first compound 158.11 µM,0.136
same,relative viability,NCI-H520; first compound 500 µM,0.113
same,relative viability,NCI-H2405; first compound 5 µM,0.89
same,relative viability,NCI-H2405; first compound 15.81 µM,0.787
same,relative viability,NCI-H2405; first compound 50 µM,0.781
same,relative viability,NCI-H2405; first compound 158.11 µM,0.25
same,relative viability,NCI-H2405; first compound 500 µM,0.0972
same,relative viability,NCI-H2228; first compound 5 µM,0.532
same,relative viability,NCI-H2228; first compound 15.81 µM,0.411
same,relative viability,NCI-H2228; first compound 50 µM,0.634
same,relative viability,NCI-H2228; first compound 158.11 µM,0.628
same,relative viability,NCI-H2228; first compound 500 µM,0.185
same,relative viability,NCI-H1666; first compound 5 µM,0.749
same,relative viability,NCI-H1666; first compound 15.81 µM,0.772
same,relative viability,NCI-H1666; first compound 50 µM,0.865
same,relative viability,NCI-H1666; first compound 158.11 µM,0.304
same,relative viability,NCI-H1666; first compound 500 µM,0.396
same,relative viability,NCI-H1355; first compound 5 µM,0.728
same,relative viability,NCI-H1355; first compound 15.81 µM,0.706
same,relative viability,NCI-H1355; first compound 50 µM,0.714
same,relative viability,NCI-H1355; first compound 158.11 µM,0.376
same,relative viability,NCI-H1355; first compound 500 µM,0.0737
same,relative viability,BEN; first compound 5 µM,1.09
same,relative viability,BEN; first compound 15.81 µM,0.853
same,relative viability,BEN; first compound 50 µM,0.909
same,relative viability,BEN; first compound 158.11 µM,0.786
same,relative viability,BEN; first compound 500 µM,0.931
same,relative viability,NCI-H2347; first compound 5 µM,0.535
same,relative viability,NCI-H2347; first compound 15.81 µM,0.505
same,relative viability,NCI-H2347; first compound 50 µM,0.562
same,relative viability,NCI-H2347; first compound 158.11 µM,0.495
same,relative viability,NCI-H2347; first compound 500 µM,0.349
same,relative viability,NCI-H358; first compound 5 µM,0.532
same,relative viability,NCI-H358; first compound 15.81 µM,0.518
same,relative viability,NCI-H358; first compound 50 µM,0.572
same,relative viability,NCI-H358; first compound 158.11 µM,0.126
same,relative viability,NCI-H358; first compound 500 µM,0.112
